Test results as given in PubChem BioAssay AID2060325 (Molecular Pharmacology Branch, DTP, NCI, 2025).

System: SK-OV-3 multi-cell spheroids, viability
Test: Anticancer human tumor SK-OV-3 cell line growth inhibition [IpAb];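 as to viability, T/C: viability read after seven days of drug exposure; percent of DMSO vehicle control luminescence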
Conditions: for IC50: curve of first compound; for viability, T/C: stronger effect = lower value
In short: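 Spheroids of 60% malignant cells, 25% HUVEC and 15% MSC were exposed to targeted agents combined with ipatasertib or abemaciclib. Doses started at or near clinical Cmax (10 microM when unknown) and fell in half-log steps.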

[1] = second compound 0.01 µM, first compound 0.0316 µM
[2] = second compound 0.01 µM, first compound 0.1 µM
[3] = second compound 0.01 µM, first compound 0.316 µM
[4] = second compound 0.01 µM, first compound 1 µM
[5] = second compound 0.01 µM, first compound 3.16 µM
[6] = second compound 0.01 µM, first compound 10 µM
[7] = second compound 0.0316 µM, first compound 0.0316 µM
[8] = second compound 0.0316 µM, first compound 0.1 µM
[9] = second compound 0.0316 µM, first compound 0.316 µM
[10] = second compound 0.0316 µM, first compound 1 µM
[11] = second compound 0.0316 µM, first compound 3.16 µM
[12] = second compound 0.0316 µM, first compound 10 µM
[13] = second compound 0.1 µM, first compound 0.0316 µM
[14] = second compound 0.1 µM, first compound 0.1 µM
[15] = second compound 0.1 µM, first compound 0.316 µM
[16] = second compound 0.1 µM, first compound 1 µM
[17] = second compound 0.1 µM, first compound 3.16 µM
[18] = second compound 0.1 µM, first compound 10 µM
[19] = second compound 0.316 µM, first compound 0.0316 µM
[20] = second compound 0.316 µM, first compound 0.1 µM
[21] = second compound 0.316 µM, first compound 0.316 µM
[22] = second compound 0.316 µM, first compound 1 µM
[23] = second compound 0.316 µM, first compound 3.16 µM
[24] = second compound 0.316 µM, first compound 10 µM
[25] = second compound 1 µM, first compound 0.0316 µM
[26] = second compound 1 µM, first compound 0.1 µM
[27] = second compound 1 µM, first compound 0.316 µM
[28] = second compound 1 µM, first compound 1 µM
[29] = second compound 1 µM, first compound 3.16 µM
[30] = second compound 1 µM, first compound 10 µM

| Compound | IC50 (second compound 0.01 µM) | IC50 (second compound 0.0316 µM) | IC50 (second compound 0.1 µM) | IC50 (second compound 0.316 µM) | IC50 (second compound 1 µM) | viability, T/C [1] | viability, T/C [2] | viability, T/C [3] | viability, T/C [4] | viability, T/C [7] | viability, T/C [8] | viability, T/C [9] | viability, T/C [10] | viability, T/C [13] | viability, T/C [14] | viability, T/C [15] | viability, T/C [16] | viability, T/C [19] | viability, T/C [20] | viability, T/C [21] | other results |
| --- | --- | --- | --- | --- | --- | --- | --- | --- | --- | --- | --- | --- | --- | --- | --- | --- | --- | --- | --- | --- | --- |
| CC1(C)CCC(CN2CCN(c3ccc(C(=O)NS(=O)(=O)c4ccc(NCC5CCOCC5)c([N+](=O)[O-])c4)c(Oc4cnc5[nH]ccc5c4)c3)CC2)=C(c2ccc(Cl)cc2)C1 + CCN1CCN(Cc2ccc(Nc3ncc(F)c(-c4cc(F)c5nc(C)n(C(C)C)c5c4)n3)nc2)CC1 | 2540 nM | 2450 nM | 722 nM | 316 nM | < 31.6 nM | 92.7% | 96.9% | 90% | 71.8% | 78.7% | 74.3% | 79.6% | 68.5% | 60.7% | 59.2% | 55.2% | 48% | 55.8% | 53.5% | 52.7% | viability, T/C [5]: 45.3%; viability, T/C [6]: 18.2%; viability, T/C [11]: 44.7%; viability, T/C [12]: 17.9%; viability, T/C [17]: 34.4%; viability, T/C [18]: 14.3%; viability, T/C [22]: 39.9%; viability, T/C [23]: 31.5%; viability, T/C [24]: 10.4%; viability, T/C [25]: 44.5%; viability, T/C [26]: 47.3%; viability, T/C [27]: 42.3%; viability, T/C [28]: 38.3%; viability, T/C [29]: 31.9%; viability, T/C [30]: 12.9% |
| CCCS(=O)(=O)Nc1ccc(F)c(C(=O)c2c[nH]c3ncc(-c4ccc(Cl)cc4)cc23)c1F + CCN1CCN(Cc2ccc(Nc3ncc(F)c(-c4cc(F)c5nc(C)n(C(C)C)c5c4)n3)nc2)CC1 | 9390 nM | 5140 nM | 1240 nM | 822 nM | < 31.6 nM | 95.1% | 93.5% | 89.1% | 85.5% | 70.1% | 69.7% | 70.3% | 68.1% | 55.3% | 59.5% | 57.4% | 51.7% | 53.2% | 55.7% | 52.9% | viability, T/C [5]: 80.3%; viability, T/C [6]: 48%; viability, T/C [11]: 65.3%; viability, T/C [12]: 29.3%; viability, T/C [17]: 39.6%; viability, T/C [18]: 20.1%; viability, T/C [22]: 46.5%; viability, T/C [23]: 44.1%; viability, T/C [24]: 25.4%; viability, T/C [25]: 41.2%; viability, T/C [26]: 44.4%; viability, T/C [27]: 48.1%; viability, T/C [28]: 38.6%; viability, T/C [29]: 36.8%; viability, T/C [30]: 24.2% |
| COc1c(OCCCN2CCOCC2)ccc2c3n(c(=NC(=O)c4cnc(N)nc4)nc12)CCN3 + CCN1CCN(Cc2ccc(Nc3ncc(F)c(-c4cc(F)c5nc(C)n(C(C)C)c5c4)n3)nc2)CC1 | 6.39 nM | 4.18 nM | < 3.16 nM | < 3.16 nM | < 3.16 nM | 12.6% | 7.16% | 5.33% | 3.04% | 9.9% | 6.3% | 5% | 2.92% | 10.4% | 5.9% | 5.13% | 2.59% | 9.73% | 6.47% | 5.55% | viability, T/C (second compound 0.01 µM, first compound 0.00316 µM): 68%; viability, T/C (second compound 0.01 µM, first compound 0.01 µM): 38.6%; viability, T/C (second compound 0.0316 µM, first compound 0.00316 µM): 56.2%; viability, T/C (second compound 0.0316 µM, first compound 0.01 µM): 30.5%; viability, T/C (second compound 0.1 µM, first compound 0.00316 µM): 43%; viability, T/C (second compound 0.1 µM, first compound 0.01 µM): 23.7%; viability, T/C (second compound 0.316 µM, first compound 0.00316 µM): 42.1%; viability, T/C (second compound 0.316 µM, first compound 0.01 µM): 22.4%; viability, T/C [22]: 3.33%; viability, T/C (second compound 1 µM, first compound 0.00316 µM): 40.2%; viability, T/C (second compound 1 µM, first compound 0.01 µM): 23.2%; viability, T/C [25]: 10.2%; viability, T/C [26]: 6.83%; viability, T/C [27]: 5.51%; viability, T/C [28]: 4.14% |
| Cc1nc(NC(=O)N2CCCC2C(N)=O)sc1-c1ccnc(C(C)(C)C(F)(F)F)c1 (stereo not given) + CCN1CCN(Cc2ccc(Nc3ncc(F)c(-c4cc(F)c5nc(C)n(C(C)C)c5c4)n3)nc2)CC1 | 239 nM | 111 nM | 33.4 nM | < 31.6 nM | < 31.6 nM | 82.9% | 70% | 43.1% | 20.7% | 66.5% | 52.3% | 31.7% | 17.5% | 50.1% | 40.5% | 23.9% | 15.6% | 43.2% | 37.1% | 28.4% | viability, T/C [5]: 9.47%; viability, T/C [6]: 5.17%; viability, T/C [11]: 8.57%; viability, T/C [12]: 4.47%; viability, T/C [17]: 9.26%; viability, T/C [18]: 4.48%; viability, T/C [22]: 15.7%; viability, T/C [23]: 7.93%; viability, T/C [24]: 5.24%; viability, T/C [25]: 39.5%; viability, T/C [26]: 34.7%; viability, T/C [27]: 23.9%; viability, T/C [28]: 15.9%; viability, T/C [29]: 9.43%; viability, T/C [30]: 4.78% |
